{"source": "patent US12655116B2", "about": "“Substituted isophthalic acid diamides” (Bayer Aktiengesellschaft, priority 2020, dated 2026)", "key": {"VERPE [1]": {"test_system": "VERPE", "test": "Pre-emergence herbicidal action against VERPE", "format": "in vivo, Veronica persica", "conditions": "dosage 80 g/ha", "in_short": "(§1)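 Pre-emergence soil-surface spray of formulated compound (WP or EC; 600 to 800 l/ha; 0.2% wetting agent) over seeds sown in sandy loam. After 3 weeks under greenhouse conditions, damage is estimated visually in percent against untreated plants.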"}, "ABUTH [2]": {"test_system": "ABUTH", "test": "Post-emergence herbicidal action against ABUTH", "format": "in vivo, Abutilon theophrasti", "conditions": "visual assessment about 3 weeks after treatment vs untreated controls", "in_short": "(§2)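 Spray, one-leaf stage: WP or EC compound in water, 600–800 l/ha, 0.2% wetting agent. Plants held about 3 weeks in the greenhouse, then visually rated in percent of kill compared with untreated controls.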"}, "MATIN [3]": {"test_system": "MATIN", "test": "Pre-emergence herbicidal action against MATIN", "format": "in vivo, Matricaria inodora", "in_short": "as §1"}, "ALOMY [4]": {"test_system": "ALOMY", "test": "Pre-emergence herbicidal action against ALOMY", "format": "in vivo, Alopecurus myosuroides", "conditions": "80 g/ha, pre-emergence, scored visually after 3 weeks vs untreated controls (100% = plants have died, 0% = like control plants)", "in_short": "as §1"}, "VIOTR [5]": {"test_system": "VIOTR", "test": "Post-emergence herbicidal action against VIOTR", "format": "in vivo, Viola tricolor", "in_short": "as §2"}, "ALOMY [6]": {"test_system": "ALOMY", "test": "Post-emergence herbicidal action against ALOMY", "format": "in vivo, Alopecurus myosuroides", "conditions": "dosage 20 g/ha, visual assessment about 3 weeks after treatment vs untreated controls", "in_short": "as §2"}, "ABUTH [7]": {"test_system": "ABUTH", "test": "Pre-emergence herbicidal action against ABUTH", "format": "in vivo, Abutilon theophrasti", "in_short": "as §1"}, "PHBPU [8]": {"test_system": "PHBPU", "test": "Pre-emergence herbicidal action against PHBPU", "format": "in vivo, Pharbitis purpurea", "conditions": "dosage 80 g/ha", "in_short": "as §1"}, "SETVI [9]": {"test_system": "SETVI", "test": "Pre-emergence herbicidal action against SETVI", "format": "in vivo, Setaria viridis", "in_short": "as §1"}, "VERPE [10]": {"test_system": "VERPE", "test": "Post-emergence herbicidal action against VERPE", "format": "in vivo, Veronica persica", "in_short": "as §2"}, "VIOTR [11]": {"test_system": "VIOTR", "test": "Pre-emergence herbicidal action against VIOTR", "format": "in vivo, Viola tricolor", "in_short": "as §1"}, "MATIN [12]": {"test_system": "MATIN", "test": "Post-emergence herbicidal action against MATIN", "format": "in vivo, Matricaria inodora", "conditions": "dosage 20 g/ha", "in_short": "as §2"}, "POLCO": {"test_system": "POLCO", "test": "Pre-emergence herbicidal action against POLCO", "format": "in vivo, Polygonum convolvulus", "conditions": "dosage 80 g/ha", "in_short": "as §1"}, "AMARE [13]": {"test_system": "AMARE", "test": "Post-emergence herbicidal action against AMARE", "format": "in vivo, Amaranthus retroflexus", "conditions": "Amaranthus retroflexus, 504 h, 20 g/ha, visual assessment about 3 weeks after treatment, 100% = plants have died, 0% = like control plants", "in_short": "as §2"}, "SETVI [14]": {"test_system": "SETVI", "test": "Post-emergence herbicidal action against SETVI", "format": "in vivo, Setaria viridis", "in_short": "as §2"}, "ECHCG [15]": {"test_system": "ECHCG", "test": "Pre-emergence herbicidal action against ECHCG", "format": "in vivo, Echinochloa crus-galli", "conditions": "80 g/ha", "in_short": "as §1"}, "AVEFA": {"test_system": "AVEFA", "test": "Pre-emergence herbicidal action against AVEFA", "format": "in vivo, Avena fatua", "conditions": "80 g/ha, pre-emergence", "in_short": "as §1"}, "AMARE [16]": {"test_system": "AMARE", "test": "Pre-emergence herbicidal action against AMARE", "format": "in vivo, Amaranthus retroflexus", "in_short": "as §1"}, "ECHCG [17]": {"test_system": "ECHCG", "test": "Post-emergence herbicidal action against ECHCG", "format": "in vivo, Echinochloa crus-galli", "in_short": "as §2"}, "PHBPU [18]": {"test_system": "PHBPU", "test": "Post-emergence herbicidal action against PHBPU", "format": "in vivo, Pharbitis purpurea", "conditions": "dosage 20 g/ha", "in_short": "as §2"}, "DIGSA": {"test_system": "DIGSA", "test": "Pre-emergence herbicidal action against DIGSA", "format": "in vivo, Digitaria sanguinalis", "in_short": "as §1"}, "[19]": {"conditions": "Setaria viridis, 504 h, dosage 20 g/ha"}, "[20]": {"conditions": "80 g/ha, scored visually after 3 weeks vs untreated controls (100% = plants have died, 0% = like control plants)"}}, "data": [{"smiles": "CSc1c(C(=O)Nc2nnnn2C)ccc(C(F)F)c1C(=O)NC1CC1", "note": "[Example 1-89]", "values": [{"measurement": "pest or weed control at 80 g/ha", "setting": "VERPE [1]; Veronica persica, 504 h", "result": 90, "unit": "%"}, {"measurement": "pest or weed control at 5 g/ha", "setting": "ABUTH [2]; Abutilon theophrasti, 504 h, dosage 5 g/ha", "result": 90, "unit": "%"}, {"measurement": "pest or weed control at 20 g/ha", "setting": "ABUTH [2]; Abutilon theophrasti, 504 h, dosage 20 g/ha", "result": 90, "unit": "%"}, {"measurement": "pest or weed control at 20 g/ha", "setting": "MATIN [3]; Tripleurospermum inodorum, 504 h, dosage 20 g/ha", "result": 90, "unit": "%"}, {"measurement": "pest or weed control at 80 g/ha", "setting": "MATIN [3]; Tripleurospermum inodorum, 504 h, dosage 80 g/ha", "result": 100, "unit": "%"}, {"measurement": "pest or weed control at 80 g/ha", "setting": "ALOMY [4]; Alopecurus myosuroides, 504 h", "result": 90, "unit": "%"}, {"measurement": "pest or weed control at 5 g/ha", "setting": "VIOTR [5]; Viola tricolor, 504 h, 5 g/ha", "result": 90, "unit": "%"}, {"measurement": "pest or weed control at 20 g/ha", "setting": "VIOTR [5]; Viola tricolor, 504 h, 20 g/ha", "result": 90, "unit": "%"}, {"measurement": "pest or weed control at 20 g/ha", "setting": "ALOMY [6]; Alopecurus myosuroides, 504 h", "result": 90, "unit": "%"}, {"measurement": "pest or weed control at 80 g/ha", "setting": "ABUTH [7]; Abutilon theophrasti, 504 h, 80 g/ha, scored visually after 3 weeks vs untreated controls (100% = plants have died, 0% = like control plants)", "result": 100, "unit": "%"}, {"measurement": "pest or weed control at 20 g/ha", "setting": "ABUTH [7]; Abutilon theophrasti, 504 h, dosage 20 g/ha, scored visually after 3 weeks vs untreated controls, 100% = plants have died, 0% = like control plants, read-out: Pre-emergence action against ABUTH (herbicidal activity in percent)", "result": 90, "unit": "%"}, {"measurement": "pest or weed control at 80 g/ha", "setting": "PHBPU [8]; Ipomoea purpurea, 504 h", "result": 80, "unit": "%"}, {"measurement": "pest or weed control at 20 g/ha", "setting": "SETVI [9]; [19]", "result": 90, "unit": "%"}, {"measurement": "pest or weed control at 80 g/ha", "setting": "SETVI [9]; Setaria viridis, 504 h, dosage 80 g/ha", "result": 100, "unit": "%"}, {"measurement": "pest or weed control at 5 g/ha", "setting": "VERPE [10]; Veronica persica, 504 h, 5 g/ha", "result": 90, "unit": "%"}, {"measurement": "pest or weed control at 20 g/ha", "setting": "VERPE [10]; Veronica persica, 504 h, 20 g/ha", "result": 90, "unit": "%"}, {"measurement": "pest or weed control at 80 g/ha", "setting": "VIOTR [11]; Viola tricolor, 504 h, dosage 80 g/ha", "result": 100, "unit": "%"}, {"measurement": "pest or weed control at 20 g/ha", "setting": "MATIN [12]; Tripleurospermum inodorum, 504 h", "result": 80, "unit": "%"}, {"measurement": "pest or weed control at 80 g/ha", "setting": "POLCO; Fallopia convolvulus, 504 h", "result": 80, "unit": "%"}, {"measurement": "pest or weed control at 20 g/ha", "setting": "AMARE [13]", "result": 100, "unit": "%"}, {"measurement": "pest or weed control at 5 g/ha", "setting": "SETVI [14]; Setaria viridis, 504 h, dosage 5 g/ha", "result": 90, "unit": "%"}, {"measurement": "pest or weed control at 20 g/ha", "setting": "SETVI [14]; [19]", "result": 90, "unit": "%"}, {"measurement": "pest or weed control at 80 g/ha", "setting": "ECHCG [15]; Echinochloa crus-galli, 504 h", "result": 100, "unit": "%"}, {"measurement": "pest or weed control at 80 g/ha", "setting": "AVEFA; Avena fatua, 504 h", "result": 90, "unit": "%"}, {"measurement": "pest or weed control at 20 g/ha", "setting": "AMARE [16]; Amaranthus retroflexus, 504 h, 20 g/ha, scored visually after 3 weeks vs untreated controls, 100% = plants have died, 0% = like control plants", "result": 100, "unit": "%"}, {"measurement": "pest or weed control at 80 g/ha", "setting": "AMARE [16]; Amaranthus retroflexus, 504 h, 80 g/ha, scored visually after 3 weeks vs untreated controls, 100% = plants have died, 0% = like control plants", "result": 100, "unit": "%"}]}, {"smiles": "CCn1nnnc1NC(=O)c1ccc(C(F)F)c(C(=O)NC2CC2)c1OC", "note": "[Example 2-74]", "values": [{"measurement": "Pre-emergence action against VERPE in %", "setting": "VERPE [1]", "result": 90, "unit": "%"}, {"measurement": "Post-emergence action against ECHCG in %", "setting": "ECHCG [17]; dosage 5 g/ha", "result": 80, "unit": "%"}, {"measurement": "Post-emergence action against ECHCG in %", "setting": "ECHCG [17]; dosage 20 g/ha", "result": 80, "unit": "%"}, {"measurement": "Post-emergence action against ABUTH in %", "setting": "ABUTH [2]; dosage 5 g/ha", "result": 80, "unit": "%"}, {"measurement": "Post-emergence action against ABUTH in %", "setting": "ABUTH [2]; dosage 20 g/ha", "result": 80, "unit": "%"}, {"measurement": "Post-emergence action against PHBPU in %", "setting": "PHBPU [18]", "result": 80, "unit": "%"}, {"measurement": "Pre-emergence action against MATIN in %", "setting": "MATIN [3]; dosage 20 g/ha", "result": 100, "unit": "%"}, {"measurement": "Pre-emergence action against MATIN in %", "setting": "MATIN [3]; dosage 80 g/ha", "result": 100, "unit": "%"}, {"measurement": "Pre-emergence action against ALOMY (herbicidal activity)", "setting": "ALOMY [4]", "result": 100, "unit": "%"}, {"measurement": "Post-emergence action against VIOTR in %", "setting": "VIOTR [5]; 20 g/ha", "result": 80, "unit": "%"}, {"measurement": "Post-emergence action against ALOMY in %", "setting": "ALOMY [6]", "result": 80, "unit": "%"}, {"measurement": "Pre-emergence action against ABUTH (herbicidal activity)", "setting": "ABUTH [7]; [20]", "result": 100, "unit": "%"}, {"measurement": "Pre-emergence action against ABUTH (herbicidal activity in percent)", "setting": "ABUTH [7]; dosage 20 g/ha, scored visually after 3 weeks vs untreated controls, 100% = plants have died, 0% = like control plants", "result": 100, "unit": "%"}, {"measurement": "Pre-emergence action against PHBPU in %", "setting": "PHBPU [8]", "result": 90, "unit": "%"}, {"measurement": "Pre-emergence action against SETVI in %", "setting": "SETVI [9]; dosage 80 g/ha", "result": 100, "unit": "%"}, {"measurement": "Post-emergence action against VERPE in %", "setting": "VERPE [10]; 20 g/ha", "result": 80, "unit": "%"}, {"measurement": "Pre-emergence action against VIOTR in %", "setting": "VIOTR [11]; dosage 20 g/ha", "result": 100, "unit": "%"}, {"measurement": "Pre-emergence action against VIOTR in %", "setting": "VIOTR [11]; dosage 80 g/ha", "result": 100, "unit": "%"}, {"measurement": "Post-emergence action against MATIN in %", "setting": "MATIN [12]", "result": 80, "unit": "%"}, {"measurement": "Pre-emergence action against POLCO in %", "setting": "POLCO", "result": 80, "unit": "%"}, {"measurement": "Post-emergence action against SETVI in %", "setting": "SETVI [14]; dosage 20 g/ha", "result": 90, "unit": "%"}, {"measurement": "Pre-emergence action against DIGSA in %", "setting": "DIGSA; dosage 20 g/ha", "result": 100, "unit": "%"}, {"measurement": "Pre-emergence action against DIGSA in %", "setting": "DIGSA; dosage 80 g/ha", "result": 100, "unit": "%"}, {"measurement": "Pre-emergence action against ECHCG in %", "setting": "ECHCG [15]", "result": 100, "unit": "%"}, {"measurement": "Pre-emergence action against AVEFA in %", "setting": "AVEFA", "result": 80, "unit": "%"}, {"measurement": "Pre-emergence action against AMARE in %", "setting": "AMARE [16]; 20 g/ha, scored visually after 3 weeks vs untreated controls, 100% = plants have died, 0% = like control plants", "result": 100, "unit": "%"}, {"measurement": "Pre-emergence action against AMARE in %", "setting": "AMARE [16]; [20]", "result": 100, "unit": "%"}]}]}
